Measured values as given in a melting point compilation (Tetko et al.; mined from patent text by program, amines drawn as free bases though some values may be those of a salt).

| melting point [°C] | Compound |
| --- | --- |
| 207 to 208 | COc1ccc(CN2C(=O)C3(COc4cc(OC)c(C#N)cc43)c3ccccc32)cc1 (stereo not drawn) |
| 133 to 138 | O=C(CCC(O)=NO)c1cccs1 |
| 125 to 127 | CNC(=O)N(C)c1nc(CC(=O)Nc2cccc(C(F)(F)F)c2)cs1 |
| 222 | COc1c(C2CCN(CCCCNC(=O)c3[nH]nc(-c4ccc(C#N)cc4)c3C)CC2)ccc2c1CCCC2 |
| 198 | CC(=O)Nc1c(C(=O)C2CCCCC2)[nH]c2cc(Cl)ccc12 |
| 244 to 246 | CC(=O)Nc1cc2c(cc1[N+](=O)[O-])OC(C)(C)[C@@H](O)[C@@H]2NC(C)=O (relative stereo) |
| 174 to 175 | CNc1cc(N2CCc3ccccc32)cc(C)n1 |
| 274 to 275 | N#Cc1ccc(-c2ccc3c(c2)CCc2nn(-c4ccccn4)c(O)c2-3)cc1 |
| > 280 | FC(F)(F)c1ccc2onc(Nc3ccncc3)c2c1 |
| 104 to 105 | CCCc1nc(-n2cccc2C(=O)C(F)(F)F)c(C#N)[nH]1 |
| 253 | C=C(C)c1ccc(C(=O)C2=C(O)C(=O)N(c3ccc(C)nn3)C2c2ccc(OC(F)(F)F)cc2)cc1 (stereo not drawn) |
| 157 to 159 | S=C(Nc1cnccc1NC1CCCCC1)NC1CCCCC1 |
| 143 to 144 | COc1ccc2c(c1)N(c1cccc(Cl)c1)C(=O)C2(C)NC(=O)OCc1ccccc1 (stereo not drawn) |
| 152 | O=Cc1ccc(Sc2nc3c(F)c(F)c(F)cc3[nH]2)o1 |
| 190 to 193 | CC(C)(C)c1ccc(Oc2coc(C(=O)O)cc2=O)cc1 |
| 214 to 217 | COC(=O)C(NS(=O)(=O)Cc1c(Cl)c(C)cc2nc(OC)c(OC)nc12)c1ccccc1 (stereo not drawn) |
| 86 | CC(C)C[C@H](NC(=O)OC(C)(C)C)C(=O)NCC(=O)OCCCNc1cccc2c1C(=O)c1ccccc1C2=O |
| 84 to 86 | COCC1(O)CCN(c2c(F)cc([N+](=O)[O-])cc2F)CC1 |
| 193 to 196 | COc1ccccc1-c1cn(C)cc(-c2cccc(C(F)(F)F)c2)c1=O |
| 206 to 207 | CC(=O)Nc1ccc(S(=O)(=O)Nc2nnc(CC(=O)O)s2)cc1 |
| 152 to 155 | CCOC(=O)c1ncn(-c2nc(C)cs2)c1N |
| 216 to 218 | NC(=O)c1c(F)ccc(OCc2ccc3ccccc3n2)c1F |
| 65 to 67 | COc1ccc(-n2cnc(-c3cc(OC)c(OC)c(OC)c3)c2-c2ccc(OC)c(O)c2)cc1 |
| > 220 | COc1ccc(F)c2c1C(=O)c1ccncc1C2=O |

| melting point [°C] | Compound |
| --- | --- |
| 176 to 180 | CC(C)Cn1c(=O)n(C)c(=O)c2c(C/C=C/CC(=O)O)n(Cc3cccc4ccccc34)cc21 |
| 74 | CCCCCCC1CCC(c2ccc(C(=O)CC(C)=O)cc2)CC1 (stereo not drawn) |
| 59 to 60 | CCc1nc(-c2ccc(OC)cc2)c(-c2cccnc2)s1 |
| 95 to 97 | O=C(Nc1ccc(Oc2ccnc(NCCN3CCCC3)n2)c2ccccc12)c1cc(F)cc(N2CCOCC2)c1 |
| 223 | O=c1[nH]c(=O)n(C2OC(CBr)C(O)C2F)cc1C=CBr (stereo not drawn) |
| 97 to 101 | COc1ccc(-n2ncc(-c3ccc(S(C)(=O)=O)cc3)c(-c3ccc(F)cc3)c2=O)cc1F |
| 210 to 211 | N#CC(NC(=O)c1cccn2cc(-c3ccccc3)nc12)c1cccc(Cl)c1 (stereo not drawn) |
| 110 to 113 | OC1Cc2cc(F)ccc2Sc2ccccc21 (stereo not drawn) |
| 193 | Cc1nc(-c2ccc(C(F)(F)F)cc2)oc1COc1ccc(/C=C/C(=O)O)cc1 |
| 82 to 84 | COc1ccc(Br)cc1C(C)(C)CCl |
| 161 to 164 | CCOc1ccc2c(c1C=NO)OCO2 |
| 160 to 162 | CC(NC(Nc1ccc(Cl)cc1)=C(C#N)S(C)(=O)=O)C(C)(C)C (stereo not drawn) |
| 68 to 69 | CCOC(=O)c1snc(C(=O)OC(C)(C)C)c1N |
| 227 to 231 | COc1cccc(C(=O)c2[nH]c3cc(Cl)ccc3c2CC(=O)O)c1 |
| 84 to 85 | OC(CCCc1ccc(Cl)cc1)Cn1ccnc1 (stereo not drawn) |
| 142 | O=C(NC(Cc1ccccc1)C(=O)O)OCc1ccc(-c2ccccc2)cc1 (stereo not drawn) |
| 119 to 120 | Cc1ncnn1-c1ccccc1C#N |
| 121 to 123 | CCNC(=O)c1c(Cl)cccc1C(C)(C)C |
| 129 to 130 | CCOC(=O)c1ccc(O)c(-n2cc3c(c2-c2ccccc2)c(=O)n(C)c(=O)n3C)c1 |
| 140 | CC(c1ccc(C=Cc2ccccc2)o1)N(O)C(N)=O (stereo not drawn) |
| 148 | O=S(=O)(c1ccc(O)cc1)c1ccccn1 |
| 188 to 190 | COc1cc(C)c(N2C(=O)CS/C2=N/N=C\c2ccc(-c3ncn(-c4ccc(OC(F)(F)F)cc4)n3)cc2)c(C)c1 |
| 239 | COc1ccc(S(=O)(=O)N2C(=O)C(CC(=O)N3CCN(c4ccccn4)CC3)(c3ccccc3Cl)c3cc(C)ccc32)c(OC)c1 (stereo not drawn) |
| 50 | CCCc1ccc(C=NN=Cc2ccc(F)c(F)c2)cc1 |

| melting point [°C] | Compound |
| --- | --- |
| 108 to 110 | CCC(CC)Oc1cc(C)nc(Nc2c(C)cc(C)cc2C)c1C(=O)C#N |
| 85 to 90 | O=C(O)C(CNC(=O)C1Cc2ccccc2N1S(=O)(=O)c1ccc(-c2cccc(C(F)(F)F)c2)cc1)Cc1ccccc1 (stereo not drawn) |
| 103 to 105 | O=C(O)c1ccccc1NCCCc1ccccc1 |
| 151 to 152 | COc1c(C)c(N2CCN(c3ccc(OC(F)F)cc3)CC2)c(C)c2c1OC(C)(C)C2 |
| 146 to 148 | COc1ccc2c(c1)C(=O)C(Br)=C(Br)C2=O |
| 94 to 96 | CCOC(=O)c1cc(-n2c(OCC)nc(C(F)(F)F)cc2=O)c(F)cc1Cl |
| 98 to 99 | CC(C)(C)c1ccc(CI)cc1[N+](=O)[O-] |
| 272 to 274 | Cn1ncc2c3[nH]n(-c4ccc(S(N)(=O)=O)cc4)c(=O)c3c(-c3cccc(C(F)(F)F)c3)nc21 |
| 93 to 96 | Nc1ccc2c(c1Br)C(=O)CCC2 |
| 150 to 151 | CCOC(=O)C1=C(C)NC(=S)N(C(=O)OC)C1c1cccc([N+](=O)[O-])c1 (stereo not drawn) |
| 215 to 217 | CNC(=O)c1cccc(-c2ccc3nnn(Cc4ccc5ncccc5c4)c3n2)c1 |
| 165 to 166 | ICCOc1ccc(C2=C(c3ccccc3)CCCc3cc(OC4CCCCO4)ccc32)cc1 (stereo not drawn) |
| 250 to 252 | N#Cc1c(Cl)c(Cl)n(C#N)c1-c1ccc(Cl)c(Cl)c1 |
| 209 to 212 | O=C1N(Cc2ccc(-c3ccno3)cc2)c2ccccc2C12COc1cc3c(cc12)OCCO3 (stereo not drawn) |
| 287 to 289 | COc1ccc(-c2n[nH]c(-c3cccc(C(=O)O)c3)n2)cc1 |
| 165 | CN(CCc1ccc2c(c1)OCO2)C(C)(C)CCC(C(N)=O)(c1ccccc1)c1ccccc1 |
| 154 to 156 | CCC(CC)Nc1cc(C)nc(Oc2c(C)cc(C)cc2C)c1NC(C)=O |
| 135 to 138 | Cc1noc(NS(=O)(=O)c2cc(Cl)c(Cl)s2)c1Br |
| 200 | CS(=O)(=O)Nc1ccc([N+](=O)[O-])cc1OC1CCSCC1 |
| 348 to 350 | COc1ccc2[nH]c3cc(-c4ccccc4C#N)c4c(c3c2c1)C(=O)NC4=O |
| 277 to 279 | COc1cc(-c2ccc(O)c(C3(C)CCCCC3)c2)cc(C=C2SC(N(C)C)=NC2=O)c1O |
| 95 to 97 | COc1ccc(I)cc1CN |
| 160 to 162 | Cc1ccc(NC(=O)c2ccc(CN3CCC[C@H](N(C)C)C3)c(C(F)(F)F)c2)cc1Nc1nccc(-c2cncnc2)n1 |
| 149 to 150 | COc1cc2ncnc(N3CCN(C(=S)Nc4ccc(S(=O)(=O)N5CCCCC5)cc4)CC3)c2cc1OC |

| melting point [°C] | Compound |
| --- | --- |
| 110 to 113 | CCCCOC(=O)C(C)(NC(=O)c1cc([N+](=O)[O-])cc([N+](=O)[O-])c1)C(C)C (stereo not drawn) |
| 110 | Cc1ccc(S(=O)(=O)O[C@H]2CCN(S(=O)(=O)c3ccc(C)cc3)C2)cc1 |
| 72 to 73 | O=[N+]([O-])c1cc(CO)ccc1Oc1ccc(OCc2ccccc2)cc1 |
| 209 to 210 | Cc1ccc2c(c1)sc1ncc(C(O)CCc3ccccc3)n12 (stereo not drawn) |
| 230 to 234 | CC(=O)NNc1ccnc2c(NC(=O)c3c(Cl)cccc3Cl)ccc(C)c12 |
| 91 to 94 | CC(=O)SC(CC(=O)c1ccc(Oc2ccc(Cl)cc2)cc1)C(=O)O (stereo not drawn) |
| 167 | CCN(CC)c1ccc(C=C2CCCC(=Cc3ccc(N(CC)CC)cc3)C2=O)cc1 |
| 186 to 191 | NCCNc1cnnc(N)n1 |
| 202 to 204 | CCn1nc2c(N)nc3c(c2c1CC(C)(C)O)CCCC3 |
| 141 to 143 | O=c1nc(Cl)cc(-c2ccccc2)n1-c1ccccc1 |
| 65 | Clc1ccc(OCC2CO2)c(OCc2ccccc2)c1Cl (stereo not drawn) |
| 123 to 125 | CC(=O)Nc1nc2c(Oc3cc(-c4ccc(C(F)(F)F)nc4N(C)CC4CCCCN4CC(C)C)ncn3)cccc2s1 (stereo not drawn) |
| 209 | CC(=O)N[C@@H](Cc1c[nH]c2ccc(O)cc12)C(=O)O |
| 195 to 200 | Nc1nc(N)c(CCCNc2ccc(C(=O)N[C@@H](CCC(=O)O)C(=O)O)cc2)c(=O)[nH]1 |
| 299 to 300 | O=S(=O)(C(=CNc1cccc(NC=C(S(=O)(=O)c2ccccc2)S(=O)(=O)c2ccccc2)n1)S(=O)(=O)c1ccccc1)c1ccccc1 |
| 102 to 106 | CC(C)OC(=O)c1cc(-n2c(=O)[nH]c(C(F)(F)F)c(F)c2=O)c(F)cc1Cl |
| 95 to 96 | CCOCc1cc2ccccc2oc1=O |
| 75 to 76 | CCOC(=O)/C(=C\Nc1cc(OC)cc(OC)c1)c1ccccc1 |
| 114 to 115 | CCOC(=O)c1cccc(-c2nc(-c3ccc(C)c(C)c3)cs2)c1 |
| 41 to 42 | C=CCN(CC=C)C(=O)n1cnc(S(=O)(=O)CCC)n1 |
| 123 to 134 | CC(C)COc1nc(N)c2ncn(C3CCCCC3)c2n1 |

| Compound | melting point [°C] |
| --- | --- |
| CC(C)(C)c1cc(-n2nc3ccc(S(=O)(=O)c4ccccc4)cc3n2)c(O)c(C(C)(C)C)c1 | 170 to 172 |
| CC(c1ccccc1)n1cncc1C(N)=O (stereo not drawn) | 136 to 137 |
| Nc1ccc(C#Cc2ccc(N3CCN4CCC3CC4)nn2)cc1 | 182 to 183 |
| O=C1c2c(Cl)cccc2-n2cnc(-c3noc(CN(Cc4ccccc4)Cc4ccccc4)n3)c2[C@@H]2CCCN12 | 107 to 109 |
| Clc1ccc2c(c1)N=Cc1ccccc1O2 | 73 to 73.5 |
